The first assay addresses Human Factor D (Homo sapiens (Human), UniProt P00746). The assay can be described thus: Human Factor D Assay. It is filed as biochemical. As to conditions: Factor D inhibition, assay of Example 10; read-out: IC5 (Stars). The gist of the method:
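Serum-purified Factor D (80 nM final) preincubated 5 min at room temperature with compound in 50 mM Tris, 1 M NaCl, pH 7.5. Z-L-Lys-SBz and DTNB added at 100 μM each; A405 followed every 30 s for 30 min. IC50 from nonlinear regression of rates versus concentration.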
Sequence of Human Factor D (P00746 26-253): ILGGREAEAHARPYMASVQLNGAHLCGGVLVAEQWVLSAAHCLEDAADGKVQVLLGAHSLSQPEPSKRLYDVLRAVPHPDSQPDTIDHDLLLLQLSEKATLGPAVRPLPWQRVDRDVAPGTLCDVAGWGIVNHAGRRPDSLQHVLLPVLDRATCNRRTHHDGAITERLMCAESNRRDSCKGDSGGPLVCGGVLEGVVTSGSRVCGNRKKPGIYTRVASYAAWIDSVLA
Consider `CC(=O)c1nn(CC(=O)N2[C@H](C(=O)Nc3cc(CC(F)(F)F)cc(Br)n3)C[C@@]3(C)C[C@@H]23)c2ccc(-c3cnc(C)nc3)cc12` [Compound 572, (1R,3S,5R)-2-(2-(3-acetyl-5-(2-methylpyrimidin-5-yl)-1H-indazol-1-yl)acetyl)-N-(6-bromo-4-(2,2,2-trifluoroethyl)pyridin-2-yl)-5-methyl-2-azabicyclo[3.1.0]hexane-3-carboxamide], for which the IC50 was less than 1 µM. Still for that read-out and setting: the value for `CC(=O)c1nn(CC(=O)N2[C@H](C(=O)NCCOC(F)(F)F)C[C@@]3(C)C[C@@H]23)c2ccc(-c3cnc(C)nc3)cc12` [Compound 579, (1R,3S,5R)-2-(2-(3-acetyl-5-(2-methylpyrimidin-5-yl)-1H-indazol-1-yl)acetyl)-5-methyl-N-(2-(trifluoromethoxy)ethyl)-2-azabicyclo[3.1.0] hexane-3-carboxamide] was less than 1 µM. Still for that read-out and setting: next, `CC(=O)c1nn(CC(=O)N2[C@H](C(=O)N[C@@H](C)CC(C)(C)C)C[C@@]3(C)C[C@@H]23)c2ccc(-c3cnc(C)nc3)cc12` [Compound 588, (1R,3S,5R)-2-(2-(3-acetyl-5-(2-methylpyrimidin-5-yl)-1H-indazol-1-yl)acetyl)-N-((S)-4,4-dimethylpentan-2-yl)-5-methyl-2-azabicyclo[3.1.0]hexane-3-carboxamide]: 1 to 10 µM; `CC(=O)c1nn(CC(=O)N2[C@H](C(=O)N[C@H](C)CC(C)(C)C)C[C@@]3(C)C[C@@H]23)c2ccc(-c3cnc(C)nc3)cc12` [Compound 589, (1R,3S,5R)-2-(2-(3-acetyl-5-(2-methylpyrimidin-5-yl)-1H-indazol-1-yl)acetyl)-N-((R)-4,4-dimethylpentan-2-yl)-5-methyl-2-azabicyclo[3.1.0]hexane-3-carboxamide]: less than 1 µM. On the same count and under the same terms, the value for `CC(=O)c1nn(CC(=O)N2[C@H](C(=O)N[C@@H](C)c3cccc(Cl)c3F)C[C@@]3(C)C[C@@H]23)c2ccc(-c3cnc(C)nc3)cc12` [Compound 590, (1R,3S,5R)-2-(2-(3-acetyl-5-(2-methylpyrimidin-5-yl)-1H-indazol-1-yl)acetyl)-N-((S)-1-(3-chloro-2-fluorophenyl)ethyl)-5-methyl-2-azabicyclo[3.1.0]hexane-3-carboxamide] was less than 1 µM; that for `CC(=O)c1nn(CC(=O)N2[C@H](C(=O)NCc3ccncn3)C[C@@]3(C)C[C@@H]23)c2c(C)cc(-c3cnc(C)nc3)cc12` [Compound 592, (1R,3S,5R)-2-(2-(3-acetyl-7-methyl-5-(2-methylpyrimidin-5-yl)-1H-indazol-1-yl)acetyl)-5-methyl-N-(pyrimidin-4-ylmethyl)-2-azabicyclo[3.1.0]hexane-3-carboxamide] was 1 to 10 µM. `CC(=O)c1nn(CC(=O)N2[C@H](C(=O)N[C@@H](C)c3ccc(C)cc3)C[C@@]3(C)C[C@@H]23)c2ccc(-c3cnc(C)nc3)cc12` [Compound 598, (1R,3S,5R)-2-(2-(3-acetyl-5-(2-methylpyrimidin-5-yl)-1H-indazol-1-yl)acetyl)-5-methyl-N-((S)-1-(p-tolyl)ethyl)-2-azabicyclo[3.1.0]hexane-3-carboxamide]: the IC50 was 1 to 10 µM.

Take `CC(=O)c1nn(CC(=O)N2[C@H](C(=O)N[C@@H](C)c3cccc(Cl)c3)C[C@@]3(C)C[C@@H]23)c2ccc(-c3cnc(C)nc3)cc12` [Compound 599, (1R,3S,5R)-2-(2-(3-acetyl-5-(2-methylpyrimidin-5-yl)-1H-indazol-1-yl)acetyl)-N-((S)-1-(3-chlorophenyl)ethyl)-5-methyl-2-azabicyclo[3.1.0]hexane-3-carboxamide]: the IC50 was less than 1 µM. Same read-out and setting: the value for `CC(=O)c1nn(CC(=O)N2[C@H](C(=O)N[C@@H](C)c3ccccc3F)C[C@@]3(C)C[C@@H]23)c2ccc(-c3cnc(C)nc3)cc12` [Compound 600, (1R,3S,5R)-2-(2-(3-acetyl-5-(2-methylpyrimidin-5-yl)-1H-indazol-1-yl)acetyl)-N-((S)-1-(2-fluorophenyl)ethyl)-5-methyl-2-azabicyclo[3.1.0]hexane-3-carboxamide] was less than 1 µM; that for `CC(=O)c1nn(CC(=O)N2[C@H](C(=O)N[C@H](C)c3cccc(Cl)c3F)C[C@@]3(C)C[C@@H]23)c2ccc(-c3cnc(C)nc3)cc12` [Compound 601, (1R,3S,5R)-2-(2-(3-acetyl-5-(2-methylpyrimidin-5-yl)-1H-indazol-1-yl)acetyl)-N-((R)-1-(3-chloro-2-fluorophenyl)ethyl)-5-methyl-2-azabicyclo[3.1.0]hexane-3-carboxamide] was less than 1 µM. On the same count and under the same terms, the value for `CC(=O)c1nn(CC(=O)N2[C@H](C(=O)NCCC3CCOCC3)C[C@@]3(C)C[C@@H]23)c2c(C)cc(-c3cnc(C)nc3)cc12` [Compound 606, (1R,3S,5R)-2-(2-(3-acetyl-7-methyl-5-(2-methylpyrimidin-5-yl)-1H-indazol-1-yl)acetyl)-5-methyl-N-(2-(tetrahydro-2H-pyran-4-yl)ethyl)-2-azabicyclo[3.1.0]hexane-3-carboxamide] was 1 to 10 µM.

Consider `CC(=O)c1nn(CC(=O)N2[C@H](C(=O)NCCN3CCOCC3)C[C@@]3(C)C[C@@H]23)c2c(C)cc(-c3cnc(C)nc3)cc12` [Compound 607, (1R,3S,5R)-2-(2-(3-acetyl-7-methyl-5-(2-methylpyrimidin-5-yl)-1H-indazol-1-yl)acetyl)-5-methyl-N-(2-morpholinoethyl)-2-azabicyclo[3.1.0]hexane-3-carboxamide], for which the IC50 was in the range of 1 to 10 µM.

Staying with this assay, now noted: Table 6; Factor D 80 nM, substrate Z-L-Lys-SBz; read-out: IC50.
As to “(1R,3S,5S)-2-(2-(3-Acetyl-5-(2-methylpyrimidin-5-yl)-1H-indazol-1-yl)acetyl)-N-(6-bromo-3-(methoxymethyl)pyridin-2-yl)-5-(methoxymethyl)-2-azabicyclo[3.1.0]hexane-3-carboxamide [Compound 49]”, the IC50 was less than 1 µM.
